# Patent US20240351966A1, “CLASS OF ALKYLPHENOL COMPOUNDS AND PREPARATION METHOD THEREFOR” (Shanghai Institute of Materia Medica, Chinese Academy of …, priority 2021, published 2024)
# Biological target: DRAK2 (Homo sapiens (Human), UniProt O94768)
# Assay: Evaluation of DRAK2 inhibitory activity by ADP-Glo kinase assay
# Assay type: biochemical
# Conditions: ADP-Glo luminescent kinase assay
# Excerpt: To determine the inhibitory activity of compounds against kinases by the kinase assay kit ADP-GLO.
# DRAK2 is a serine/threonine protein kinase. ADP Glo& #8482; Kinase Assay (ADP Glo& #8482; Kinase Assay Kit) is a luminescent kinase assay kit that can detect ADP formed during kinase reactions; this kit can firstly convert ADP into ATP, which is then captured by Ultra Glo& #8482, luciferase and ultimately converts into light. The emitted light signal is positively correlated with the corresponding ATP, thus through this method, the inhibitory activity of small molecule compounds on DRAK2 can be measured.
# The compound was dissolved in DMSO before experiment to prepare stock solution.
# When using, the stock solution was diluted with culture medium to a desired concentration.
# • 1. 1 μl of compound was added to the well for each assay • 2. […] 2 μl of ATP was added to each well of the assay plate • 4. the plate was shook and centrifuged.
# 2.5 μl ADP-Glo™ reagent was add to terminate kinase reaction and consume unconsumed ATP, leaving only ADP and very low ATP background to incubate at room temperature for 60 minutes.
# 5 μl of kinase assay reagent was add to convert ADP to ATP, and luciferase and […] were introduced to detect ATP.
# Envision was used to measure luminescence
# • 1. Values were copied from Envision program
# The “minimum” refers to the proportion of without enzyme control, while “maximum” refers to the proportion of DMSO control. • 3. GraphPad Prism 5.0 was used to process data
# Through this method, the inhibitory activity of small molecule compounds on DRAK2 can be obtained.
# Chain of DRAK2 (O94768 whole entry, species assumed): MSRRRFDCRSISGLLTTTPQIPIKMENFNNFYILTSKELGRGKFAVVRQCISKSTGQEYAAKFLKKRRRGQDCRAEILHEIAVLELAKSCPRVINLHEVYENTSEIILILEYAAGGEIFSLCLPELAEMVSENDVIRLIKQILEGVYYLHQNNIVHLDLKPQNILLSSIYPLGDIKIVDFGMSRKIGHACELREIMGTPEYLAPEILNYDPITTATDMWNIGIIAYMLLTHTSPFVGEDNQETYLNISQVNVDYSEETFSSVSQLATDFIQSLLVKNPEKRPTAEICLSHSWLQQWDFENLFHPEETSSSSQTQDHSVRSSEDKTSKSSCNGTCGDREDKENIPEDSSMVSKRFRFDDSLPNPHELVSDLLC
row,IC50 [µM],SMILES
1,4.94 ± 1.18,CCCCCCc1cccc(CCCc2cc(O)cc(O)c2)c1 [Compound 17]
2,4.93 ± 1.09,CCCCCCc1cccc(CCCc2cc(O)cc(NS(=O)(=O)CC)c2)c1 [Compound 39]
3,4.06 ± 0.35,CCCCCCc1cccc(CCCc2cc(O)cc(O)c2Cl)c1 [Compound 28]
4,7.73 ± 0.7,CCCCCCC=CCCCCCCCc1ccc(O)cc1O [Compound 1]
